From patent publication US20050019746A1, “Apoptosis-related kinase/GPCRs” (EiRx Therapeutics Limited, priority 2003, published 2005)

How the values were obtained:
TF1 cells [1] = assay: TF1 apoptosis by light scatter (FSC/SSC, live gate) analysis; format: cell-based, human; details: TF1, 48 h, with GM-CSF 2 ng/ml (35% upon factor withdrawal)
Method: Light Scatter Analysis takes advantage of the fact that by using the laser beam of a flow cytometer one can determine the size (Forward Scatter) and granularity (Side Scatter) of a cell. The morphological changes associated with apoptosis, such as decreased size (shrinkage) and granularity affect these parameters. As a consequence, cells undergoing apoptosis will move to the left and slightly down, from the parameters of a healthy population.
TF1 cells are plated into 24 well plates (2×10^5/ml) and are cultured for 48 h in the presence or absence of GM-CSF (2 ng/ml). Cells are then harvested by centrifugation (1000 rpm, for 10 min) and washed in PBS. […] Forward and Side scatter parameters are assessed using Cell Quest software.
Culturing TF1 cells in the absence of GM-CSF induces cell death. This death induces morphological changes in the Forward and Side Scatter parameters that can be detected by FacsCalibre analysis. […]
To assess the antiapoptotic effect of BCL2 over-expression in TF1 cells, cells are transduced with either retrovirus expressing full length BCL2 coding sequence or control vector lacking BCL2. […] The percentage of transduced cells remaining in the live gate (an arbitrary region pre-set on a healthy population of TF1 cells grown in the presence of GM-CSF (2 ng/ml)) is recorded. An index of antiapoptotic activity is calculated by computing the difference in samples ±GMCSF. […]

[2] = test system: human primary neutrophils; assay: Neutrophil apoptosis by sub G1 analysis (DNA fragmentation); format: cell-based; details: neutrophils cultured overnight with GM-CSF (65% without)
Method: Neutrophils are isolated from the blood as described in WO 02/04657 and resuspended at a concentration of 2×10^6/ml. Five hundred microlitres are pipetted into wells of a 24 well plate and incubated in the presence or absence of survival factors.
After this incubation, the neutrophils are carefully resuspended by gentle agitation and the total contents of the well are placed into an eppendorf and centrifuged@2800 rpm for 2 min@RT in a minifuge. The cell pellet is carefully resuspended in 300 μl of ice cold hypotonic fluorochrome solution (50 μg/ml Propidium Iodide, 0.1% Sodium Citrate and 0.1% Triton X-100) and placed in a fridge for 24 h@4° C.
Prepared samples are analysed with a FacsCalibre flow cytometer (Becton Dickinson) using double discrimination to ensure single cell suspension with Log Forward and Side Scatter Parameter acquisition.
(§1) Neutrophils are seeded at 2×10^6/ml in a 24 well plate in full culture medium (1 ml/well). A PI3K inhibitor (Ly294002) is added to the neutrophils to a final concentration of 20 μM prior to the addition of GM-CSF (50 units/ml). Control wells received either no GM-CSF or F GM-CSF (50 units/ml) in the absence of inhibitor. Neutrophils are cultured for 18 h at 37° C. prior to harvest and prepared for sub G1 analysis, as previously described.
as §1, with “An AKT” for “A PI3K”, “([1L-6-Hydroxymethyl-chiro-inositol 2-O-methyl-3-O-octadecylcarbonate] (Calbiochem))” for “(Ly294002)”, “μM and incubated for 2 h” for “μM”, “receive” for “received”, “or” for “or F”

TF1 cells [3] = assay: TF1 apoptosis by sub G1 analysis; format: cell-based, human; details: TF1, 48 h, with GM-CSF (approximately 55% in the absence)
Method: TF1 cells are cultured for 48 h in the presence or absence of GM-CSF (2 ng/ml). Cells are then harvested by centrifugation (1000 rpm, for 10 min) and washed in PBS. The pellet is resuspended in PBS (2×10^5 cells/ml) and 1 ml is then added in a dropwise fashion to ice cold 70% EtoH whilst continuously vortexing. Cells are then permeabilized by incubating at −20° C. for 24 h. To stain DNA, cells are centrifuged and washed in PBS. Cells are resuspended in 500 μl Propidium Iodide Buffer (Propidium iodide (50 μg/ml); RNAse A (50 μg/ml) for 15 min in the dark before flow cytometric analysis using a FacsCalibre (Becton Dickinson). Analysis is performed using Cell Quest software.

PC3 cells [4] = assay: Cell Migration Assay (Chemicon ECM550, Boyden Chamber); format: cell-based, human; details: 48 hours post siRNA transfection, 24-hour migration, compared to missense and UPA controls
Method: Cells are seeded into a 6-well plate and allowed to adhere overnight at 37° C. in a humidified atmosphere containing 5% CO2 in air. Cells are next transfected with siRNA oligonucleotides, at a concentration of 2 μg/ml, against the genes of interest, as described in detail in Example 5. Transfections are continued for 4 hrs after which the transfection solution is removed and cells are refed with fresh medium and allowed incubate overnight. Transfected cells are next harvested for seeding into migration assay as described below.
The Chemicon Cell Migration Assay (ECM550) is used to quantify the number of PC3 cells that successfully migrate across a Boyden Chamber towards a chemoattractant over a 24-hour incubation period. Assessment of PC3 cell migration is performed routinely 48 hours post siRNA Transfection. The effect of reducing the expression of genes of interest is compared to that of a missense control oligomer and to the influence of UPA knockdown, which is reported in the literature to decrease PC3 cell migration. The Migration Assay is performed as per manufacturers inductions. Results are illustrated in FIGS. 39 to 41.
Cells were plated and transfected with the indicated siRNA as described above. Migration of PC3 cells was tracked using a fluorescent dye. Consequently increases in fluorescent units correlates positively with increased migration.

A549 cells = assay: Anchorage Independence/Soft Agar Assay, A549; format: cell-based, human; set-up: PERCENTAGE SURVIVAL RELATIVE TO MS, A549, n = 2: tested at 2 µg; details: soft agar
Method: (§2) The Anchorage Independence/Soft Agar Assay allows assessment of the influence of modulation of gene expression on clonal tumouroid formation by observing and quantifying tumouroid morphology and colony number over an extended period of logarithmic growth thereby ascertaining any cell death is induced.
(§3) Cells are seeded into a 6-well plate and allowed to adhere overnight at 37° C. in a humidified atmosphere containing 5% CO2 in air. Cells are next transfected with siRNA Oligomers, at a concentration of 2 μg, against the genes of interest. Transfections continued for 4 hrs after which the transfection solution is removed and cells are refed with fresh medium and allowed incubate overnight. Transfected cells are next harvested for seeding into soft agar assay as described below. Cells are seeded at 5×10^4 cells per well of a 6 well plate and incubated over a 12/14-Day period whilst proliferating in a 0.05% Agar/Medium cell suspension at 37° C. in a humidified atmosphere containing 5% CO2 in air. Colonies formed are subsequently stained with Crystal Violet, their morphology is assessed and colonies formed are enumerated at a 4× magnification.
(§4) The cytotoxic effect of each gene is determined by a reduction in colony number compared to our MS control, but any influence on the morphology of the colony is also noted.
(§5) Examples of genes with a cytotoxic effect on knockdown as detected by the soft agar assay are outlined in Table 14. Table 14 gives the percentage survival of the indicated cell lines post transfection with siRNA oligomers to target genes relative to that of the missense in an anchorage independent assay. As an internal reference, the known survival gene Survivin was also targeted by siRNA. This table illustrates the magnitude of cytotoxicity induced by the knockdown of each target gene compared to the MS control i.e. the number of colonies formed are stained with Crystal violet and enumerated visually as discussed.

cancer cell lines = assay: Anchorage Independence/Soft Agar Assay, summary over the cell lines; format: cell-based, human; details: 14-day anchorage independent assay, over the cell lines examined
Method: as §2, §3, §4
As an internal reference, the known survival gene ‘Survivin’ was also targeted by siRNA.

HCT15 cells = assay: Anchorage Independence/Soft Agar Assay, HCT15; format: cell-based, human; set-up: PERCENTAGE SURVIVAL RELATIVE TO MS, HCT15, n = 2: tested at 2 µg; PERCENTAGE SURVIVAL RELATIVE TO MS, HCT15, n = 1: tested at 2 µg siRNA; details: soft agar
Method: as §2, §3, §4, §5

U251 cells = assay: Anchorage Independence/Soft Agar Assay, U251; format: cell-based, human; details: soft agar, experiment n = 1
Method: as §2
as §3, with “Cells are seeded at 5×10^4 cells per well of a 6 well plate and incubated over a 12/14-Day period whilst proliferating in a 0.05% Agar/Medium cell suspension at 37° C. in a humidified atmosphere containing 5% CO2 in air.” left out
as §4
(§6) Examples of genes with a cytotoxic effect on knockdown as detected by the soft agar assay are outlined in Table 14. […]

MCF7 cells = assay: Anchorage Independence/Soft Agar Assay, MCF7; format: cell-based, human; set-up: PERCENTAGE SURVIVAL RELATIVE TO MS, MCF7, n = 2: tested at 2 µg; details: soft agar
Method: as §2, §3, §4, §5

PC3 cells [5] = assay: Anchorage Independence/Soft Agar Assay, PC3; format: cell-based, human; details: soft agar, experiment n = 1
Method: as §2
as §3, with “Cells are seeded at 5×10^4 cells per well of a 6 well plate and incubated over a 12/14-Day period whilst proliferating in a 0.05% Agar/Medium cell suspension at 37° C. in a humidified atmosphere containing 5% CO2 in air.” left out
as §4, §6

ELAV-1 = assay: Validation of missense control siRNA on ELAV-1 expression; format: cell-based; details: missense control with 4 base pair mismatch substitutions
Excerpt: The missense control outlined above is designed by introducing 4 base pair mismatch substitutions into the siRNA oligo sequence for ELAV-1 (Accession number xm—008947; gi 1475941).

[6] = test system: OAS1 and GBP1 mRNA in HCT15, A549, SKOV3, DU145, PC3, A498, U251 cells; assay: Interferon response genes mRNA by QPCR after siRNA transfection; format: cell-based, human; details: compared to untransfected cells
Excerpt: Inhibiting gene expression using siRNA has been associated with non-specific induction of interferon from target cells (Sledz C A et al. Nat Cell Biol. September 2003; 5(9): 834-9. 2003). Since induction of interferon may possibly affect biological assays, we control for the effect of our siRNA oligonucleotides on inducing interferon. This is examined by quantitating message RNA levels for two interferon responsive genes, namely OAS1, and GBP1, both before and after siRNA transfection.
QPCR Primers, designed by MWG Biotech as described previously, are as follows.
The levels of expression of OAS1 and GBP1 in siRNA-transfected cells are expressed as a percentage of that in untransfected control cells.

## GM-CSF: a 22 kDa proinflammatory cytokine; survival factor for neutrophils and TF1 cells
TF1 cells [1]
  percentage of cells in the live gate: 77%
[2]
  percentage of cells with a sub G1 profile: 9.7%
TF1 cells [3]
  cells with sub-G1 profiles: 5%

## siRNA CNK/PRK: sense UCGUAGUGCUUGUACUUACtt, antisense GUAAGUACAAGCACUACGAtt (sense UCGUAGUGCUUGUACUUACTT; antisense GUAAGUACAAGCACUACGATT; chemistry not given here)
PC3 cells [4]
  migration of PC3 cells: increases the ability of cancer cells to migrate
A549 cells; experiment n = 1
  PERCENTAGE SURVIVAL RELATIVE TO MS, A549, n = 1: 91%
A549 cells; experiment n = 2
  PERCENTAGE SURVIVAL RELATIVE TO MS, A549, n = 2: 39.6%
Cancer cell lines
  cell death / apoptosis in the soft agar assay: induced toxicity consistently in the HCT15 cell line
HCT15 cells; experiment n = 1
  PERCENTAGE SURVIVAL RELATIVE TO MS, HCT15, n = 1: 38.6%
HCT15 cells; experiment n = 2
  PERCENTAGE SURVIVAL RELATIVE TO MS, HCT15, n = 2: 72.3%
U251 cells
  PERCENTAGE SURVIVAL RELATIVE TO MS, U251, n = 1: 13.5%
MCF7 cells; experiment n = 1
  PERCENTAGE SURVIVAL RELATIVE TO MS, MCF7, n = 1: 98.2%
MCF7 cells; experiment n = 2
  PERCENTAGE SURVIVAL RELATIVE TO MS, MCF7, n = 2: 66.3%
PC3 cells [5]
  PERCENTAGE SURVIVAL RELATIVE TO MS, PC3, n = 1: 10%

## siRNA MS: missense control siRNA, sense UGAGAAUGUGAUGCGCGUCTT, antisense GACGCGCAUCACAUUCUCATT (chemistry not given here)
ELAV-1
  expression of ELAV-1: incapable of decreasing the expression ELAV-1
[6]; HCT15, A549, SKOV3, DU145 and U251 cells
  mRNA levels of interferon response genes OAS1 and GBP1: does not increase mRNA levels of interferon response genes
[6]; PC3 and A498 cells
  mRNA levels of interferon response genes OAS1 and GBP1: Some increase in mRNA of interferon response genes
